The assay deals with PFKFB3 (Homo sapiens (Human), UniProt Q16875). In words: PFKFB3 kinase activity, Method A (F-2,6-P2 production, coupled PPi-PFK/NADH assay). Type of assay: biochemical. From the text:
The PFKFB3 (placenta form) and PFKFB4 were produced and purified to homogeneity from E. coli at Biovitrum and at Sprint Bioscience. All other reagents were purchased from commercial sources. Two independent methods have been used for determination of the kinase activity of PFKFB3 (Method A and Method B). Method B has been used for determination of the kinase activity of PFKFB4.
Method A: The kinase activity of the bi-functional enzyme is readily quantified based on the production of F-2,6-P2 as described by Van Schaftingen et al. (1982) Eur. J. Biochem. 129, 191-5. This sensitive assay is based on the potent activation of pyrophosphate dependent phosphofructokinase-1 (PPi-PFK) from potato tubers by F-2,6-P2. The use of a series of coupled enzymes leads to a consumption of NADH (nicotinamide adenine dinucleotide) that can be followed spectrophotometrically (an updated protocol is available in Van Schaftingen, (1984) Methods of Enzymatic Analysis (Bergmeyer, H. U., ed.), 3rd edn., vol. 6, pp. 335-341, Verlag Chemie, Weinheim). A protocol for measurements in 96-well microtiter plate format is also available (Bruni et al., (1989) Anal. Biochem. 178, 324-6). These assay protocols have been adopted for the measurement of the kinase activity of PFKFB3 with some modifications as described in the protocol below.
The assay was run in 96-well microtiter plates (Costar 3365 round bottom polypropylene) by consecutive additions of 30 μl each of a test compound solution (diluted from a DMSO stock solution), a PFKFB3 solution and a substrate (fructose-6-phosphate (F6P) and adenosine-5′-triphosphate (ATP)) containing solution. […] The final concentrations of all reagents in a total assay volume of 90 μl per well were: • 50 mM Tris-acetate at pH 8.0 • 0.1 mM EDTA (ethylene diamine tetraacetic acid) • 10 mM MgCl2 • 5 mM Na2HPO4 (buffered by the Tris-acetate to a final pH of 8.0) • 5 nM PFKFB3 • 4 μM ATP • 100 μM F6P (acid treated and then neutralized to remove any contaminating F-2,6-P2; see Van Schaftingen, 1984) • 1 mM dithiothreitol (DTT) • 0.005% Tween-20
A test compound at various concentrations (which also added 0.83% DMSO to the final solution)
The enzymatic reaction was allowed to proceed for 10 minutes at room temperature while on a plate shaker at medium speed (750 RPM). The reaction was then terminated by the addition of 90 μl of a 0.4 M NaOH solution to all wells. The plate was then placed on the plateshaker at the same speed for two minutes to allow sufficient mixing. All samples were then diluted by a factor of 10 by transferring 20 μl from each well to the corresponding well of a new plate with 180 μl distilled water predispensed to all wells.
The next step in the protocol was quantification of the levels of F-2,6-P2 in each well of the microtiter plate. This was done by transferring 20 μl of the content in each well to the corresponding position in a new plate (Nunc 269620 transparent 96-well plate). […] To ensure that all measured values were within the linear range of the response (measured to be between 0-1 nM of F-2,6-P2 as also described by Van Schaftingen) the same volume of a 2.5 nM and a 5.0 nM standard sample were also added to column 12 (as all samples were diluted five-fold in the assay procedure this corresponds to 0.5 and 1.0 nM samples). The procedure then involved consecutive additions of three solutions with the following premixed components: • Assay-mix (20 μl): Tris-acetate at pH 8.0, NADH and Mg(OAc)2 • PPi/F6P-mix (40 μl): Pyrophosphate and F6P • Enzyme-mix (20 μl): Tris-acetate at pH 8.0, aldolase, triose phosphate isomerase, glycerol-3-phosphate dehydrogenase, pyrophosphate-dependent phosphofructokinase from potato tubers and bovine serum albumin (BSA) […]

Sequence of PFKFB3 (Q16875 whole entry): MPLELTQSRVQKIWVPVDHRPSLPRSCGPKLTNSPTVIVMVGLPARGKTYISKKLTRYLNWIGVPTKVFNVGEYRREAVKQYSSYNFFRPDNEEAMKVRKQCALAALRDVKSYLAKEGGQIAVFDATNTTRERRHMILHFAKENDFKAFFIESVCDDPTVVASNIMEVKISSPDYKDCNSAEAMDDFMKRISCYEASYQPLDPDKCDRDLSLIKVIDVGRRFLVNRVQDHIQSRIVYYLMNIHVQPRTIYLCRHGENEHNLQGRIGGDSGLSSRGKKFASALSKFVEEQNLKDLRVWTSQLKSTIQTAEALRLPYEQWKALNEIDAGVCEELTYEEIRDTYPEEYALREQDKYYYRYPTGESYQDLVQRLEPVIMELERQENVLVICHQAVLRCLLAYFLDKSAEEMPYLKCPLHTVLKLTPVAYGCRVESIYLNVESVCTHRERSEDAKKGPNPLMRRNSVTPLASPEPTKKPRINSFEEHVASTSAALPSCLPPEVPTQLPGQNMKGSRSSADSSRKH

In the case of `Cc1c(S(=O)(=O)Nc2cccc(C(=O)O)c2)sc2ccc(C(C)C)cc12` [Example 5, 3-{[(5-Isopropyl-3-methyl-1-benzothien-2-yl)sulfonyl]amino}benzoic acid], the IC50 (in general, the point on the concentration scale where inhibition reaches its midpoint) was determined as 30 nM.

The compound `Cc1c(S(=O)(=O)Nc2cccc(C(=O)O)c2)sc2ccc(Cl)cc12` [Example 38, 3-{[(5-Chloro-3-methyl-1-benzothien-2-yl)sulfonyl]amino}benzoic acid] had an IC50 of 180 nM.
